Earlier results, collected in patent publication US20020171063A1, “Reduced toxicity ethylene glycol-based antifreeze/heat transfer fluid concentrates and antifreeze/heat transfer fluids” (priority 2001, published 2002).

Tested on: laboratory rats

Q: For `CC(O)CO` (centres unmarked) [PG, 1,2-propanediol], which “acute oral toxicity (LD50)” value is on record?
A: Its value is 20,000 mg/kg.

Q: With `O.O.O.O.O=B[O-].[Na+]` [metaborate] as the compound, how does the “acute oral toxicity (LD50)” value read?
A: Its value is 1,700 mg/kg.
